Columns and labels:
HepG2 [1] = experiment: drug sensitivity score (DSS) for viability; higher = more toxic; extreme values may be limits of the assay; details: 72 h
Vero E6 [2] = experiment: as above; details: 72 h
Caco-2 [3] = experiment: as above; details: 72 h
Calu-3 [4] = experiment: as above; details: 72 h
U2OS [5] = experiment: as above; details: 72 h
[6] = tested on: A549-ACE2 infected with SARS-CoV-2; experiment: SARS-CoV-2 infection rate relative to DMSO; higher = more infection; details: 24 h
A549-ACE2 [7] = experiment: drug-induced phospholipidosis relative to tamoxifen; higher = more phospholipidosis
HepG2 [8] = experiment: cell viability relative to DMSO; higher = less toxic; details: 72 h
Vero E6 [9] = experiment: as above; details: 72 h
Caco-2 [10] = experiment: as above; details: 72 h
Calu-3 [11] = experiment: as above; details: 72 h
U2OS [12] = experiment: as above; details: 72 h
[13] = tested on: A549-ACE2 infected with SARS-CoV-2; experiment: cell count relative to DMSO; higher = less toxic; details: 24 h
[14] = tested on: A549-ACE2 infected with SARS-CoV-2; experiment: morphology score (similarity to uninfected cells); higher = more like uninfected cells; details: 24 h
HepG2 [15] = experiment: relative viability EC50 (midpoint between 100% and the lowest measured viability); higher = less toxic; details: 72 h
Vero E6 [16] = experiment: as above; details: 72 h
Calu-3 [17] = experiment: as above; details: 72 h
A549-ACE2 [18] = experiment: phospholipidosis EC50; higher = less potent phospholipidosis inducer
U2OS [19] = experiment: relative viability EC50 (midpoint between 100% and the lowest measured viability); higher = less toxic; details: 72 h
Caco-2 [20] = experiment: as above; details: 72 h

Cc1csc(-c2nnc(Nc3ccc(Oc4ncccc4-c4ccnc(N)n4)cc3)c3ccccc23)c1 [AMG900]
Details | drug sensitivity score | relative viability EC50
Caco-2 [3] | 4.2 | –
Calu-3 [4] | 3.3 | –
Calu-3 [17] | – | > 10 µM
HepG2 [1] | 13.9 | –
HepG2 [15] | – | 540 nM
U2OS [5] | 4.3 | –
Vero E6 [2] | 8.5 | –
Vero E6 [16] | – | > 10 µM

Details | SARS-CoV-2 infection rate, [6] [%] | cell count, [13] [%] | cell viability, Caco-2 [10] [%] | cell viability, Calu-3 [11] [%] | cell viability, HepG2 [8] [%] | cell viability, U2OS [12] [%] | cell viability, Vero E6 [9] [%] | morphology score, [14]
1 nM | – | – | 94.6 | 104 | 101 | 93.9 | 100 | –
10 nM | – | – | 90.5 | 90.7 | 73.4 | 93.8 | 82.2 | –
0.1 µM | 97 | 77 | – | – | – | – | – | 0.14
100 nM | – | – | 96.1 | 92 | 76.6 | 85.5 | 80.4 | –
0.3 µM | 93 | 73 | – | – | – | – | – | 0.2
1 µM | 105 | 74 | – | – | – | – | – | -0.05
1000 nM | – | – | 77.3 | 77.8 | 53.6 | 82.3 | 81.7 | –
3 µM | 104 | 75 | – | – | – | – | – | -0.08
10000 nM | – | – | 65.5 | 81.4 | 2.2 | 68.2 | 75.8 | –

drug-induced phospholipidosis [%], A549-ACE2 [7]
Details | 0.3 µM | 0.833333 µM | 3.33333 µM | 6.66667 µM | 10 µM | 30 µM
24 h | 13.3 | 10.1 | 22.8 | 35.6 | 44.4 | 33.3
48 h | – | – | 27.1 | – | 34.6 | 7.09

Cn1c(NC[C@@H](N)Cc2ccccc2)nc(-c2ccncc2)c(-c2ccc3ccccc3c2)c1=O [AMG-548]
Details | drug sensitivity score | relative viability EC50 [µM]
Caco-2 [3] | 2.8 | –
HepG2 [1] | 0.9 | –
U2OS [5] | 2.3 | –
U2OS [19] | – | > 10
Vero E6 [2] | 0.3 | –
Vero E6 [16] | – | > 10

Details | SARS-CoV-2 infection rate [%] | cell count [%] | cell viability [%] | morphology score | phospholipidosis EC50 [µM]
A549-ACE2 [18], 24 h | – | – | – | – | 8.48
A549-ACE2 [18], 48 h | – | – | – | – | 9.02
A549-ACE2 [18], 72 h | – | – | – | – | 9.93
Caco-2 [10], 1 nM | – | – | 96.8 | – | –
Caco-2 [10], 10 nM | – | – | 87.9 | – | –
Caco-2 [10], 100 nM | – | – | 102 | – | –
Caco-2 [10], 1000 nM | – | – | 89.5 | – | –
Caco-2 [10], 10000 nM | – | – | 69.9 | – | –
HepG2 [8], 1 nM | – | – | 106 | – | –
HepG2 [8], 10 nM | – | – | 108 | – | –
HepG2 [8], 100 nM | – | – | 101 | – | –
HepG2 [8], 1000 nM | – | – | 104 | – | –
HepG2 [8], 10000 nM | – | – | 72.4 | – | –
U2OS [12], 1 nM | – | – | 101 | – | –
U2OS [12], 10 nM | – | – | 94.2 | – | –
U2OS [12], 100 nM | – | – | 93.1 | – | –
U2OS [12], 1000 nM | – | – | 85.3 | – | –
U2OS [12], 10000 nM | – | – | 76.3 | – | –
Vero E6 [9], 1 nM | – | – | 106 | – | –
Vero E6 [9], 10 nM | – | – | 104 | – | –
Vero E6 [9], 100 nM | – | – | 99.2 | – | –
Vero E6 [9], 1000 nM | – | – | 89 | – | –
Vero E6 [9], 10000 nM | – | – | 97.2 | – | –
[6], 0.3 µM | 99 | – | – | – | –
[6], 3 µM | 71 | – | – | – | –
[6], 10 µM | 27 | – | – | – | –
[6], 30 µM | 11 | – | – | – | –
[13], 0.3 µM | – | 93 | – | – | –
[13], 3 µM | – | 110 | – | – | –
[13], 10 µM | – | 123 | – | – | –
[13], 30 µM | – | 106 | – | – | –
[14], 0.3 µM | – | – | – | -0.14 | –
[14], 3 µM | – | – | – | 0.22 | –
[14], 10 µM | – | – | – | 0.82 | –
[14], 30 µM | – | – | – | 0.53 | –

drug-induced phospholipidosis [%], A549-ACE2 [7]
Details | 0.3 µM | 0.833333 µM | 3.33333 µM | 6.66667 µM | 10 µM | 30 µM
24 h | -3.67 | -2.85 | 6.77 | 44.3 | 80.5 | 129
48 h | -2.54 | -2.01 | 5.31 | 39.9 | 73.3 | 125
72 h | -1.85 | -0.623 | 7.44 | 37.6 | 80.8 | 151

[Cl][Ru-]([Cl])([Cl])[Cl].[Na+].c1ccc2[nH]ncc2c1.c1ccc2[nH]ncc2c1 [NKP-1339]
Details | drug sensitivity score | relative viability EC50 [µM]
Caco-2 [3] | 0.5 | –
Caco-2 [20] | – | > 10
Calu-3 [4] | 0 | –
Calu-3 [17] | – | > 10
U2OS [5] | 0 | –
U2OS [19] | – | > 10
Vero E6 [2] | 0 | –
Vero E6 [16] | – | > 10

Details | SARS-CoV-2 infection rate, [6] [%] | cell count, [13] [%] | cell viability, Caco-2 [10] [%] | cell viability, Calu-3 [11] [%] | cell viability, U2OS [12] [%] | cell viability, Vero E6 [9] [%] | morphology score, [14]
1 nM | – | – | 98.5 | 96.2 | 94.2 | 95.7 | –
10 nM | – | – | 96.6 | 91.9 | 95.9 | 99.2 | –
100 nM | – | – | 94.3 | 93.2 | 100 | 98.9 | –
0.3 µM | 95 | 98 | – | – | – | – | 0.32
1000 nM | – | – | 89.9 | 111 | 98.4 | 104 | –
3 µM | 99 | 103 | – | – | – | – | 0.06
10 µM | 97 | 100 | – | – | – | – | 0.14
10000 nM | – | – | 85.2 | 96.1 | 99.5 | 103 | –
30 µM | 91 | 105 | – | – | – | – | 0.16

drug-induced phospholipidosis [%], A549-ACE2 [7]
Details | 0.3 µM | 0.833333 µM | 3.33333 µM | 6.66667 µM | 10 µM | 30 µM
24 h | -0.57 | 0.18 | -2.08 | -1.49 | -1.44 | 2.85
48 h | 0.31 | 0.08 | -0.84 | -0.18 | -0.5 | 1.39
72 h | 0.516 | -1.21 | -0.615 | -0.927 | 0.0701 | 3.63

Cc1nnc2n1-c1sc(CCC(=O)N3CCOCC3)cc1C(c1ccccc1Cl)=NC2 [apafant]
Details | drug sensitivity score | relative viability EC50
Caco-2 [3] | 0 | –
Caco-2 [20] | – | > 10 µM
Calu-3 [4] | 0 | –
Calu-3 [17] | – | > 10 µM
HepG2 [1] | 0 | –
HepG2 [15] | – | > 10000 nM
Vero E6 [2] | 0 | –
Vero E6 [16] | – | > 10 µM

Details | SARS-CoV-2 infection rate, [6] [%] | cell count, [13] [%] | cell viability, Caco-2 [10] [%] | cell viability, Calu-3 [11] [%] | cell viability, HepG2 [8] [%] | cell viability, Vero E6 [9] [%] | morphology score, [14]
1 nM | – | – | 108 | 94.3 | 105 | 111 | –
10 nM | – | – | 107 | 94.7 | 93.7 | 105 | –
100 nM | – | – | 101 | 95.3 | 108 | 104 | –
0.3 µM | 101 | 101 | – | – | – | – | -0.03
1000 nM | – | – | 104 | 105 | 92.3 | 105 | –
3 µM | 83 | 102 | – | – | – | – | 0.43
10 µM | 102 | 100 | – | – | – | – | -0.18
10000 nM | – | – | 94 | 87.1 | 102 | 99.7 | –
30 µM | 93 | 103 | – | – | – | – | 0.24

drug-induced phospholipidosis [%], A549-ACE2 [7]
Details | 0.3 µM | 0.833333 µM | 3.33333 µM | 6.66667 µM | 10 µM | 30 µM
24 h | -0.44 | -1.14 | -1.04 | -0.5 | -1.44 | -0.48
48 h | 0.52 | -1.18 | 0.04 | 0.92 | -0.18 | 0.6
72 h | 2.35 | -0.663 | 0.399 | -0.364 | 0.448 | 3.95

From the supplement of paper PMC13380429
